Laboratory results taken from paper PMC6874057, “Synthesis of Chalcone Derivatives: Inducing Apoptosis of HepG2 Cells via Regulating Reactive Oxygen Species and Mitochondrial Pathway” (Frontiers in Pharmacology, 2019).

How the values were obtained:
[1] = system: PARP in HepG2 cells; assay: Western blot, PARP and cleaved PARP; type: cell-based, human; conditions: 48 h, compared to the control group; in words
Method: (§1) HepG2 cells (3 × 10^5 cells/well) were seeded into a six-well plate overnight for adherence, and then treated with a14 (0, 30, 40, 50, 60, and 70 µM) for 48 h. After the cells were collected by centrifugation, they were lysed with the radio immunoprecipitation assay (RIPA) buffer (high) containing 50 mM Tris (pH = 7.4), 150 mM NaCl, 1% TritonX-100, 1% sodium deoxycholate, 0.1% sodium dodecyl sulfate (SDS), 2 mM sodium pyrophosphate, 25 mM β-glycerophosphate, 1 mM ethylenediaminetetraacetic acid (EDTA), 1 mM Na3VO4, and 0.5 ug/ml leupeptin (Beijing Solarbio Science & Technology Co., Ltd.).The extract was then centrifuged at 12,000 rpm for 30 min and the total protein concentration was quantified using the BCA kit (Beijing Solarbio Science & Technology Co., Ltd.). The protein extracts were mixed with the SDS-PAGE protein loading buffer (Beijing Solarbio Science & Technology Co., Ltd.) and then boiled in 100°C water bath for 10 min. The gel was gelatinized using an SDS Gel Kit (Beijing Solarbio Science & Technology Co., Ltd.) and protein extracts were separated by protein SDS-polyacrylamide gel electrophoresis and transferred to Immobilon-NC Membrane (Beijing Solarbio Science & Technology Co., Ltd.). […]

[2] = system: HepG2 cells; assay: Inhibition curve of a14 on HepG2 cells (MTT, 24, 48, 72 h); type: cell-based, human; conditions: in words
Method: HepG2 cells (5 × 10^3 cells/well) were seeded into the 96-well plates and kept to attach overnight. […] After the incubation time, 10 µl MTT was added to each well, and the culture was continued in a sterile incubator at 37°C for 4 h under the environment of 5% CO2. Then, the supernatant medium was discarded, and the solid was dissolved in 200 µl DMSO. Then, a multifunction microplate reader (Bio-Rad Laboratories, Shanghai, China) was applied to record the absorbance at 490 nm. Cell growth inhibition rates at different concentrations were calculated and plotted using Origin Pro8 software. Each set of data represented the average value of three independent experiments.

[3] = system: adherent tumor cell lines (HepG2, A549 and Hela); assay: MTT assay, summary over adherent tumor cell lines; type: cell-based; conditions: Homo sapiens; span of IC50 over compounds a11-a14 and adherent tumor cell lines; read-out: IC50 range over cell lines
Method: (§2) HeLa, A549, HepG2, HL-60, and WI-38 cell lines were incubated in DMEM solution containing 10% FBS for 48 h. The incubated tumor cells were seeded into 96-well plates (5 × 10^3 cells/well) to make them attach for 12 h. Afterwards, the cells were processed with the various concentrations of the synthetic compounds and 5-FU for 48 h. After removing the cell culture supernatant, 10 µl MTT (5 mg/ml) solution was dripped into the cells to generate a formazan product, which were dissolved by dimethyl sulfoxide (DMSO) 4 h later. Multifunction microplate reader (Bio-Rad Laboratories, Shanghai, China) was adopted to measure the absorbance at the wave length of 490 nm. The IC50 (the lowest drug concentration causing 50% of the tumor cells inhibition) was then calculated using GraphPad Prism Software (version 5.02) and used to indicate the cytotoxic effect of the target compounds on the selected tumor cells.

[4] = system: Caspase 3 in HepG2 cells; assay: Western blot, Caspase 3; type: cell-based, human; conditions: 48 h, compared to the control group; in words
Method: as §1

[5] = system: Bcl-2 in HepG2 cells; assay: Western blot, Bcl-2; type: cell-based, human; conditions: different concentrations, 48 h, dose-dependent; in words
Method: as §1

[6] = system: HepG2 cells; assay: Annexin V-Alexa Fluor 647/PI staining, flow cytometry; type: cell-based, human; conditions: 48 h
Method: HepG2 cells were seeded into six-well plates (3 × 10^5/well) overnight to allow the cells to grow adherently and then incubated with a14 at the concentrations of 0, 30, 40, 50, 60 or 70 µM for 48 h. In order to assess apoptosis, the double Annexin V-Alexa Fluor 647/PI (Beijing Solarbio Science & Technology Co., Ltd) immunofluorescence labeling method was used. After the cells were collected by centrifugation, 5 µl of Annexin V-Alexa Fluor 647 and 10 µl of PI solution (20 ug/ml) were added to each well. The cells were mixed and incubated at room temperature for 15 min in the dark and then mixed with 400 µl of PBS. Then, a Beckman Coulter flow cytometer (Beckman Coulter, Inc. California) was used to monitor the fluorescence. Ten thousand events were collected for each sample, and the data were analyzed via Flow Jo-V10 software.

[7] = system: HepG2; assay: MTT cell viability assay, HepG2; type: cell-based, human; conditions: Homo sapiens, HepG2, 48 h, mean ± SE
Method: as §2

[8] = system: HepG2 cells; assay: DAPI staining, morphology of apoptotic cells; type: cell-based, human; conditions: various concentrations, 48 h; in words
Method: Firstly, HepG2 cells (3 × 10^5 cells/well) were seeded into six-well plates and kept to attach overnight. Then, the cells were incubated with a14 at different concentrations (0, 30, 50, and 70 µM) for 48 h, washed by ice-cold PBS solution and fixed with 4% paraformaldehyde for 10 min at room temperature. The cells was processed by DAPI (10 µg/ml) for 15 min in the dark, and the residual DAPI was rinsed two more times by ice-cold PBS. Then, the cells were transferred on a glass slide, fixed with a coverslip and placed under a fluorescence microscope (Motic China Group Co., Ltd., Shenzhen, China) to be observed and photographed at an excitation wavelength of 480/30× nm and the emission wavelength of 515 nm. Condensation of chromatin and fragmentation of nuclei could be applied to determine the apoptotic cells.

[9] = system: Hela; assay: MTT cell viability assay, Hela; type: cell-based, human; conditions: Homo sapiens, HeLa, 48 h, mean ± SE
Method: as §2

[10] = system: WI-38; assay: MTT cell viability assay, normal cell line WI-38; type: cell-based, human; conditions: Homo sapiens, WI-38, 48 h, normal cells, mean ± SE
Method: as §2

[11] = system: A549; assay: MTT cell viability assay, A549; type: cell-based, human; conditions: Homo sapiens, A549, 48 h, mean ± SE
Method: as §2

## COc1cc(/C=C/C(=O)c2ccc(O)c(C(N)=O)c2)cc(OC)c1OC [a14]
[1]
  expression level of PARP: decrease
  level of cleaved PARP proteins: increase
[2]; 24, 48, 72 h, different concentrations
  inhibitory activities on HepG2 cells: dose- and time-dependent manner
[2]; action time 48 or 72 h
  growth inhibition effect on HepG2 cells: significantly improved
[2]; action time less than 24 h
  cytotoxic effect on HepG2 cells: relatively weak
[3]
  IC50: 23.3 to 54.4 µM
[4]
  expression level of Caspases 3: decrease
[5]
  expression of anti-apoptotic proteins (Bcl-2): down-regulated
[6]; a14 30 µM
  Early apoptosis: 3.10%
  Late apoptosis: 9.45%
[6]; a14 50 µM
  increase of percentage of early apoptosis compared with the untreated group: 28.35%
  increase of percentage of late apoptosis compared with the untreated group: 13.51%
[6]; a14 70 µM
  Early apoptosis: 28.62%
  Late apoptosis: 32.89%
[7]
  IC50: 38.3 ± 0.59 µM
[8]
  morphological changes of the nucleus (DAPI): a large number of nuclear condensation and nuclear fragmentation
[9]
  IC50: 23.3 ± 2.35 µM
[10]
  IC50: 121.3 ± 0.87 µM
[11]
  IC50: 36.7 ± 1.08 µM
